We go through one compound from patent US4844894A, “Method of inhibiting the onset of septicemia and endotoxemia” (priority 1986, dated 1989).

The subject of data set [1] is chick embryos. Description: Chick embryo 50% lethal dose assay (CELD50). The class given is in vivo. How it is done: A sensitive measure of endotoxin toxicity is the chick embryo 50% lethal dose assay (CELD50). In this test, chick embryos at 10 days of age are injected with varying doses of the material to be tested. […] Using the chick embryo test, a comparison was made of the toxicity of radiation-detoxified endotoxin with the parent endotoxin as well as with MPL.

The nature of data set [2]: Phosphorous content. The class given is physicochemical. Conditions: Percent by weight.
The test system of data set [3] is septicemia. Description: Nonspecific resistance to septicemia induced in mice by cecal ligation and puncture. Format: in vivo, NMRI mice. Conditions: 1 μg, ip, 24 hr prior surgery. On the procedure: 14 NMRI mice were pretreated with one microgram of MPL administered by intraperitoneal injection. 24 hours later each of the mice underwent surgery wherein the cecum of each mouse was ligated and punctured to internally expose the mice to microorganisms capable of instigating the onset of septicemia. […] A second group of mice were subjected to surgery in precisely the same way without pretreatment with MPL.

Data set [4] relates to endotoxin (E. coli 0111:B 4). Briefly: Non-septic endotoxemia: endotoxin (E. coli 0111:B4) challenge ip in mice. Format: in vivo. Conditions: 100 ug MPL ip day 0. How it is done:
(§1) A model for non-septic endotoxemia is to inject mice intraperitoneally (ip) with endotoxin. […] Depending on the dose, death may occur within about 72 hours. The LD50 can be determined by injecting groups of mice with different doses of endotoxin, and noting the number of survivors in each group. The protective effect of a given treatment is evidenced by an increase in the LD50 of the endotoxin challenge.
(§2) In this embodiment, mice were injected ip on day 0 with either 100 ug MPL in 0.25 ml saline (treatment group) or else saline alone (control group). On day 3, mice in both groups received an ip injection containing one of several different doses of endotoxin (E. coli 0111:B 4). There were 8 mice at each endotoxin dose level. The doses for the control group were […] endotoxin. The doses for treatment group were 0.75, 1.00, 1.25, 1.50, 2.0, and 2.5 mg endotoxin. […] The LD50 for each group was calculated using the method of Reed and Meuench (ibid.). […] Since only 2 mice dies at the highest endotoxin dose in the treatment group, the LD50 the LD50 could not be calculated for this group. It is evident, however, that it would be well above 2.5 mg, probably around 5-6 mg. This would correspond to at least a 4 to 5 fold increase in the LD50 following treatment with MPL.

For data set [5], the system named is endotoxin from E. coli K235. Description: Non-septic endotoxemia: endotoxin from E. coli K235 challenge ip in mice. Conditions: pre-treated with 100 ug MPL. The class given is in vivo. How it is done:
as §1, §2
In another experiment the LD50 's for both the control and the treatment groups were successfully determined. The experimental design was essentially the same as that described above except that the endotoxin used was obtained from E. coli K235.

For data set [6], the system named is E. coli 055B5. Description: Septic endotoxemia: challenge with 5 LD50's of live E. coli 055B5 in mice. The class given is in vivo. Conditions: 50 ug MPL ip on days 0 and 1; challenge on day 2. On the procedure:
(§3) Injection of mice ip with live E. coli provides a good model of gram-negative sepsis and associated endotoxemia, since E. coli readily sheds endotoxin. In this model, a known quantity of live E. coli are injected, and the survivors are counted for an appropriate number of days. The effectiveness of a treatment is evidenced by an increase in the survivorship for a treated group.
In the experiment, 10 mice were given ip injections of 50 ug MPL on days 0 and 1. They therefore received a total of 100 ug MPL. The control group received only saline. All mice were challenged on day 2 with 5 LD50 's of E. coli 055B5 organisms, also injected ip. All control animals died, whereas all treated animals (10/10) survived.

Data set [7] concerns E. coli 055B5. Description: Septic endotoxemia: challenge with 30 LD50's of E. coli 055B5 in mice. The class given is in vivo. Conditions: 25, 25 and 50 ug MPL ip on days 0, 1 and 2; challenge on day 2. On the procedure:
as §3
In a manner similar to that employed in Example 3, 10 mice were given ip injections on days 0, 1 and 2 of 25, 25 and 50 ug MPL, respectively, corresponding to a total of 100 ug MPL for each mouse. Mice in the control group received only saline. On day 2, all mice received a challenge consisting of 30 LD50 's of E. coli 055B5. This corresponds to an overwhelming challenge dose. No mice in the control group survived, while 50% animals (5/10) in the treatment group survived.

For data set [8], the system named is rabbits. Conditions: Table B, ref (2); cited from earlier work.
In data set [9] the test system is rabbits. Conditions: Table B, refs (1), (3); cited from earlier work.
For data set [10] the following is noted: relative to parent endotoxin; cited from earlier work.
For data set [11], the system named is rabbits. Conditions: Table B, refs (1), (2); cited from earlier work.
Setting [12] is: 120 hrs after induction of septicemia.

Some results are limits rather than exact numbers.

Regarding `CCCCCCCCCCCCCC(=O)OC(CCCCCCCCCCC)CC(=O)OC1C(NC(=O)CC(CCCCCCCCCCC)OC(=O)CCCCCCCCCCC)C(OCC2OC(O)C(NC(=O)CC(O)CCCCCCCCCCC)C(OC(=O)CC(O)CCCCCCCCCCC)C2O)OC(CO)C1OP(=O)(O)O` (stereo not shown) [MPL, Monophosphoryl Lipid A], the “eggs killed in CELD50 test” value in [1] (at any dose, footnote to Table A) is “No eggs killed at any dose”. Also, the CELD50 in [1] (chick embryos at 10 days of age, survivors at 24 hours) is > 20 µg. Moreover, the “toxicity in CELD50 assay, in words” value in data set [1] (text conclusion from Table A) is recorded as “essentially no toxicity”. In data set [2], the “Phosphorous Content” value is recorded as 1.8%. The “effect on onset of septicemia, in words” value in data set [3] was “inhibits the onset of septicemia”. Besides, in data set [3] (setting [12]), the “% Survival” value is recorded as 71% and the Dead/Total was 4/14. Moreover, the “mice dying at the highest endotoxin dose” value in data set [4] (2.5 mg endotoxin day 3, 8 mice per dose level) is listed as 2 mice. The “fold increase in LD50 of endotoxin following treatment” value in data set [4] (endotoxin ip day 3) is 4 to 5 fold. In data set [5], the “LD50 of endotoxin in pre-treated mice” value was 1.16 mg, the “increase (factor) in LD50 of endotoxin” value is ~5 factor and the symptoms of endotoxemia result is “did not show any of the usual symptoms of endotoxemia”. The treated animals survived in data set [6] is 10/10. In [7], the “animals survived in treatment group” value is 5/10 and the “survival, % of animals in treatment group” value was 50%. Besides, the LD50 in rabbits in [8] is reported as > 8,000 mcg/kg. Also, the “Local Shwartzman Reaction in rabbits (area of hemorrhagic lesion)” value in [9] was < 10 mm^2. Also, the “toxicity in all of the Table B assays, in words” value in [10] is recorded as “only negligible toxicity”. In addition, the “Pyrogenicity in rabbits (difference between basic and maximal body temperature)” value in data set [11] is 0 °C.
